# Results as given in patent US20140100183A1, “CENTRAL ADMINISTRATION OF STABLE FORMULATIONS OF THERAPEUTIC AGENTS FOR CNS CONDITIONS” (The Regents of the University of Colorado, a body corporate, priority 2006, published 2014).
# Values joined by “and” are separate entries in the source; they are usually repeats but may differ in a detail not shown here. Equal entries are not always repeated. Where two headings read alike, the source gives them in different places.
# Columns and labels:
# [1] = tested on: human; details: cited from earlier work
# [2] = tested on: anxiety in rats (elevated plus maze, open field); test: Elevated plus maze and open field conflicts test after ICV antidepressants; assay type: in vivo, rat; details: elevated plus maze and open field conflicts test
# Protocol: Various antidepressants were injected via ICV, and animals monitored in standard elevated plus maze and open field conflicts test.
# Rats are placed in the center of a pluz-shaped maze. The arms are 13 cm wide; two arms were open and two are enclosed by 32 cm high walls. The maze is elevated off the flor by 51 cm. The percent of time and distance traveled in each type of arm over the 4 minute test period is calculated by computer. Increased time and distance traveled in the open arms is thought to reflect anxiolytic activity.
# Rats are place against 1 side of a 104 cm square box with 32 cm sides. The activity of the rat is monitored by computer over a 4 minute testing period. A computer divides the openfied space into 25 equal squares arranged into an outer:ring” of 16 squares, a middle region of 8 squares and a central square. The percent of time and distarnce traveled in the center square by rats receiving the drug are calculated and compared to rats receiving a saline control. Increased time and distance traveled in the center square is thought to reflect anxiolytic activity.
# [3] = tested on: animals; test: Behavioral toxicology: openfield, elevated plus, ataxia; assay type: in vivo
# Protocol: Several animal models as described below were used to determine the efficacy of formulations containing different concentrations of the drug. The animals were also tested for toxic effects as described in the table, below.
# All animals are assessed for ataxia, which is a measure of altered gate and ability to change body position. They are also placed on their acks and time to “righting” measured.
# [4] = tested on: pentylenetetrazole (PTZ) seizure induction in rats; test: Pentylenetetrazole (PTZ) seizure induction model, ICV administration; assay type: in vivo, rat; details: for % Change: drug group vs vehicle group (-V); for Rodent ICV dose: effective daily dose, blocking seizures; for Efficacy: effective in blocking seizures
# Protocol: Rats are anesthetized, placed in a stereotaxic instrument and a burr hole opened over one anterior lateral ventricle. A cannula is lowered to the ventricle and 5 μl of solution containing the drug is injected into the ventricle over 10 minutes. The incision is then closed and the animal allowed to regain consciousness and remain conscious for 10 minutes. After 10 minutes has elapsed, pentylenetetrazole (PTZ, 10 mg/ml in saline) is injected through a tail-vein catheter at a constant rate of infusion (1 ml/min, Razel syringe pump) until a motor seizure is induced. PTZ seizures are identified as myoclonic jerking followed by clonus and tonus. The time from the initial application of PTZ to the first clonic seizure (i.e., forelimb clonus) is measured and defined as “latency to seiqure onset”. The total amount of PTZ infused is calculated and then divided by each rat;s body weight to obtain the dose (mg/kg) of PTZ. The dose required to attain status epilepticus is compared to the PTZ dose without antiseizure medication.
# [5] = tested on: sensory inhibition deficits in DBA/2 mice; test: Chronic ICV clozapine (7 day minipump), sensory inhibition; assay type: in vivo, mouse; details: 0.25 μl/hr for 7 days
# Protocol: DBA/2 mice are implanted with a chronic indwelling cannula aimed at one anterior lateral ventricle (Alzet Brain Infusion system) which is connected to an osmotic minipump delivering 0.25 μl/hr for 7 days. On the 7th day, the mouse is anesthetized, placed in a stereotaxic instrument, a burr hole opened in the skull over the contralateral dorsal hippocampus and a recording electrode lowered to the CA3 region of the hippocampus. Evoked EEG responses to closely paired (0.5 msec apart) identical tones are recorded.
# [6] = tested on: rats
# Text: At necropsy, blood is collected via cardiac puncture and placed in Na-EDTA anticoagulant or serum-separator tubes (SST). Anticoagulant blood is used to generate complete blood counts (CBCs). SST blood is spun down and serum collected to generate biochemical profiles CSF is collected via a cisterna magna puncture.
# Tissues collected at necropsy for histopathology analysis include brain, skeletal muscle, eye, liver and kidney, and are preserved in 10% neutral-buffered formalin (5:1 formalin to tissue) for a minimum of 48 hours prior to processing. Tissues are processed for routine light microscopic analysis. Briefly, tissues are dehydrated, imbedded in wax, cut into 8 μm sections and mounted on slides, re-hydrated, and hematoxylin/eosin stained (H&E).
# Biochemical and CBC values are pooled by treatment group and means compared to sham control group values using paired t-tests. Histopathology samples are assigned a point value based on the degree of necrosis, inflammatory cell infiltrate, and fibrosis. Scores for each are summed by group and compared to sham control tissues.
# Tissues from euthanized animals are collected and drug levels quantitated as follows: Tissues are recovered, place in an Eppendorf tube and weighed. […] Digests are then mixed with scintillation fluid (Scinti-safe, Fisher Scientific, 50:50 v/v) and counts quantitated utilizing a Beckman model LS 6500 scintillation counter. […]
# [7] = tested on: sensory inhibition deficits in DBA/2 mice; test: Sensory inhibition (paired auditory stimuli, TC ratio) after acute ICV administration; assay type: in vivo, mouse; details: for conditioning amplitude / test amplitude: vs baseline; for Rodent ICV dose: effective daily dose, mice
# Protocol: The following methods were used to record the sensory inhibition.
# The deficit in sensory inhibition can be quantified using the paired stimulus paradigm in which 2 identical stimuli are delivered 0.5 seconds apart and the electrophysiological response to each is recorded. In normal individuals, the response to the second, or test, stimulus, occurring 50 msec after stimulus onset, is reduced compared to the response to the first, or conditioning stimulus. However, schizophrenia patients have similar magnitude responses to both stimuli: The “TC ratio” is calculated by dividing the test amplitude by the conditioning amplitude. […] In normal individuals, the TC ratio is generally less than 0.4 while schizophrenia patients commonly have TC ratios above 0.5 and often approaching or exceeding 1.0.
# In the present study, briefly, 5 baseline records were obtained in response to the paired auditory stimuli, prior to drug administration. […] Recordings were obtained at 5 minute intervals for 90 minutes post injection. Data analyzed included the amplitude of the response to the first stimulus (conditioning amplitude), amplitude of the response to the second stimulus (test amplitude) and the TC ratio (test amplitude/conditioning amplitude). This final parameter gives a measure of the level of inhibition in the circuit initiated by the conditioning stimulus. […] DBA/2 mice routinely have TC ratios of ≧0.8.
# [8] = tested on: schizophrenia patients; details: Iqbal et al. 2003; cited from earlier work
# [9] = cited from earlier work
# [10] = tested on: primary mouse cortical neuron cultures; test: Toxicity in primary mouse cortical neuron cultures (MTT)
# Protocol: In addition, a preliminary assessment of the toxicity of cyclodextrin in primary mouse cortical neuron cultures was performed. […] After dissection, and cellular dissociation, the cells were washed with Dulbecco's Modified Eagle's Medium with 10% fetal bovine serum. Following recentrifugation, the cells resuspended in plating medium, counted with trypan blue and plated at a constant density of 6.5×10^4 cells per well in a 96-well pre-coated plate. […] The cultures were maintained at 37° C. in a humidified atmosphere of 5% CO2. […] The cultures were incubated and cell toxicity assayed at 24, 48 and 72 hours. Viability was assessed by the MTT (3-(4,5 diethylthiazol-2-yl)-2,5)diphenyltetrazolium bromide) assay, CellTiter 96 Non-radioactive cell Proliferation Assay (Promega, Madison Wis.) and by visual examination.
# [11] = tested on: prenatally stressed Sprague Dawley rats; test: Chronic ICV clozapine by osmotic minipump in schizophrenia model (Example 3); assay type: in vivo, rat
# Protocol: After 1 week recovery from surgery, at least 10 baseline recording sessions are performed in which 30 pairs of identical auditory click stimuli are presented and the evoked potentials are recorded and averaged. This establishes the baseline parameters for sensory inhibition in the rats.
# Formulations described above are administered into the ventricles using an osmotic minipump to deliver 0.5 μl/hr for 14 days. The rats have a chronic recording electrode implant that allows repeated awake recording over several days and a ventricular cannula to permit withdrawal of CSF. Sensory inhibition is recorded on alternate days for the 14 days of the pump duration. At the end of each recording session, blood and CSF are sampled under light anesthesia to assess levels of the active agent. Brain penetration and distribution are assessed using tritiated active agent/excipient complex in the osmotic minipump in a separate group of animals. […] A rat model of deficient sensory inhibition is used which allows us to sample both fluids repeatedly over several days.
# Two days later, alternate day recording of sensory inhibition begins and continues for the full 14 days of the pump. […] Data are analyzed by analysis of variance and appropriate a posteriori analyses performed wherever significant differences are found (p<0.05).
# [12] = for prevention of precipitation on titration: even at very alkaline pH (≈11)
# [13] = qualitative, solvents as given in the source; cited from earlier work
# [14] = tested on: patients diagnosed with epilepsy disorders; test: ICV or cisterna magna treatment of epilepsy (Example 6); assay type: in vivo, human; details: central administration, 0.01 to 0.1 mg per hour, 1 week
# Text: After 1 week of treatment, epileptic frequency is reduced.
# [15] = tested on: patients diagnosed with psychotic disorders; test: ICV or cisterna magna treatment of psychotic disorders (Example 5); details: central administration, 0.01 to 0.1 mg per hour, 1 week
# Protocol: A 5 mg/ml solution of the active agent is solubilized in aqueous solution using beta-hydroxypropyl cyclodextrin, made isotonic with NaCl, and the pH is maintained at 7.4 with 10 mM sodium phosphate. […] The stabilized solution is inserted into a fluid reservoir attached to a Medtronic Synchromed-II intrathecal delivery system. The stabilized formulation is intracerebroventricularly or cistema magna injected into patients diagnosed with psychotic disorders.
# Injection is continuous, using a computerized pump to provide a delivery rate of 0.01 to 0.1 mg of the active agent per hour, depending on the severity of symptoms.
# [16] = human dose is IV not oral for this drug
# [17] = rodent ICV dose vs human oral equivalent
structure (smiles),measurement,setting,value
Nc1ncnc2c1ncn2[C@@H]1O[C@H](CO)[C@@H](O)[C@H]1O [Adenosine],Human oral equivalent,[1]; [16],0.1 mg/kg
same,efficacy following ICV administration,[2],efficacy
same,Highest non-toxic concentration,"[3]; rat, in vivo",0.0694 mg/mL
same,% Change,[4],90%
same,Rodent ICV dose,[4],0.001336 mg/kg
same,Efficacy,[4],effective in blocking
same,% of Oral dose,[4]; [16],1.3%
"CN1CCN(C2=Nc3cc(Cl)ccc3Nc3ccccc32)CC1 [Clozapine, 8-chloro-11-(4-methyl-1-piperazinyl)-5H-dibenzo [b,e][1,4] diazepine]",response to the second tone,[5],significant decreases in the response to the second tone
same,accumulation of drug in peripheral tissues and organs,[6]; chronic ICV versus intraperitoneal (IP),significantly less accumulation of drug in peripheral tissues and organs
same,CNS pathology and systemic toxicity,"[6]; rat, in vivo",minimal or no CNS pathology and low systemic toxicity
same,conditioning amplitude,[7]; 0.5 μg ICV,"increases in conditioning amplitude, though the latter did not reach statistical significance"
same,test amplitude,[7]; 0.5 μg ICV,decreases in test amplitude
same,time post injection with significantly reduced test amplitudes,[7]; 1.0 μg ICV,35 min
same,conditioning amplitude,[7]; 1.0 μg ICV,significantly increased conditioning amplitudes
same,test amplitude,[7]; 1.0 μg ICV,significantly reduced test amplitudes
same,Efficacy,[7]; acute effective dose for improvement of sensory inhibition deficits in mice,acute effective
same,Rodent ICV dose,[7],0.040 mg/kg
same,Rodent ICV dose,[7]; listed as clozapine,about 0.040 mg/kg
same,% of Oral dose,[7]; [17],0.5%
same,ICV dose lower than systemically administered dose,"[7]; same mouse model, vs Simosky et al 2002",> 1000 fold
same,Human oral equivalent,"[1]; effective daily dose, oral",7.5 mg/kg
same,patients who discontinue due to systemic side effects,[8],17%
same,partition coefficient,"[9]; acidic conditions, pH 2",0.4
same,Solubility in water,[9],practically insoluble
same,octanol-to-water partition coefficient,"[9]; pH 7.4 (Merck Index, 2004)",1000
same,Highest non-toxic concentration,[10]; In vitro primary cortical cell culture,10 µg/mL
same,final concentration at which significant toxicity was observed,[10]; clozapine formulated with cyclodextrin,≥ 10 μg/mL and ≥ 30 μM
same,plasma levels,"[11]; 0.5 μl/hr for 14 days, steady state",extremely low or not detectable
same,sensory inhibition,[11]; 14 days,improvement in sensory inhibition
same,Highest non-toxic concentration,"[3]; rat, in vivo",50 mg/mL
same,pH until which addition of NaOH has little effect on solubility,"[12]; acidified with HCl, no solubility enhancing agent",~6.5
same,prevention of precipitation on titration,[12]; cyclodextrin,prevented clozapine precipitation
same,pH up to which precipitation is inhibited,[12]; cyclodextrin-to-clozapine molar ratio of 2:1,≤ 9.0
same,prevention of precipitation on titration,[12]; octyl glucoside,prevented clozapine precipitation
same,prevention of precipitation on titration above neutral pH,[12]; polyethylene glycol (PEG 4000),not able to prevent clozapine precipitation
same,prevention of precipitation on titration above neutral pH,[12]; polyvinylpyrrolidone (PVP 10K),not able to prevent clozapine precipitation
"NC(=O)OCC(COC(N)=O)c1ccccc1 [Felbamate, 2-phenyl-1,3-propanediol dicarbamate]",Human oral equivalent,"[1]; effective daily dose, oral",20 mg/kg
same,Highest non-toxic concentration,"[3]; Behavioral: openfield, elevated plus, ataxia",0.056 mg/mL
same,Comments: solubility,[13],Freely soluble in water and in alcohol; soluble in acetone; insoluble in ether and in benzene
same,% Change,[4],60%
same,Rodent ICV dose,[4],0.08242 mg/kg
same,Rodent ICV dose,[4]; listed as felbamate,about 0.08242 mg/kg
same,Efficacy,[4],effective in blocking
same,% of Oral dose,[4]; [17],0.4%
same,alleviation of seizures,[14],efficacious therapeutic alleviation of seizures
O=C1Cc2cc(CCN3CCN(c4nsc5ccccc45)CC3)c(Cl)cc2N1 [Geodon],alleviation of psychotic symptoms,[15],efficacious therapeutic alleviation of psychotic symptoms
OCCOCCN1CCN(C2=Nc3ccccc3Sc3ccccc32)CC1 [Quetiapine],alleviation of psychotic symptoms,[15],efficacious therapeutic alleviation of psychotic symptoms
